Measured values reported in US20230073512A1, “MODULATORS OF CULLIN 3 ADAPTOR KBTBD4 AS ANTI-CANCER COMPOUNDS” (UNIVERSITE DE MONTREAL, priority 2019, published 2023).

Test system: AML3
Assay: Cell proliferation of cancerous cell lines
Format: cell-based
Settings: AML3; read-out: Antineoplastic effect of tested compounds on cell proliferation of cancerous AML3 cells, IC50

Structure (SMILES) | IC50
COC(=O)c1ccc2c(c1)[nH]c1nc(Cc3ccsc3)nc(N[C@H]3CC[C@H](N)CC3)c12 | 1000 to 2000 nM
COC(=O)c1ccc2c(c1)[nH]c1nc(Cc3ccccc3)nc(CCCCN3CCCCC3)c12 | 1000 to 2000 nM
Cn1nnc(-c2ccc3c(c2)[nH]c2ncnc(NCC(O)CN4CCCCC4)c23)n1 (stereo not shown) | 1000 to 2000 nM
COC(=O)c1ccc2c(c1)[nH]c1nc(Cc3cccc(C(=O)C(F)(F)F)c3)nc(NCCCN3CCCCC3)c12 | 1000 to 2000 nM
Cn1nnc(-c2ccc3c(c2)[nH]c2ncnc(N[C@H]4CC[C@H](N(C)C)CC4)c23)n1 | 500 to 1000 nM
Cn1nnc(-c2ccc3c(c2)[nH]c2ncnc(N[C@H]4CC[C@H](N)CC4)c23)n1 | 1000 to 2000 nM
COC(=O)c1cnc2c(c1)Cc1nc(Cc3ccccc3)nc(NCCCN(C)CCCNc3nc(Cc4ccccc4)nc4[nH]c5cc(C(=O)OC)cnc5c34)c1-2 | < 500 nM
COC(=O)c1ccc2c(c1)[nH]c1ncnc(NCCCN)c12 | 1000 to 2000 nM
COC(=O)c1ccc2c(c1)[nH]c1cc(Cc3ccccc3)nc(NCCN3CCCC3)c12 | 2000 to 5000 nM
COC(=O)c1ccc2c(c1)[nH]c1nc(Cc3ccccc3)nc(NCC3CCCN3)c12 (stereo not shown) | 2000 to 5000 nM
COC(=O)c1ccc2c(c1)[nH]c1nc(Cc3ccccc3)nc(NCCCN(C)CCOCCOCCO)c12 | 500 to 1000 nM
COC(=O)c1ccc2c(c1)[nH]c1nc(Cc3ccccc3)nc(Nc3cccc(CO)c3)c12 | 2000 to 5000 nM
CNCCCNc1nc(Cc2ccccc2)nc2[nH]c3cc(C(=O)OC)ccc3c12 | 1000 to 2000 nM
COC(=O)c1ccc2c(c1)[nH]c1nc(Cc3ccccc3)nc(NCCNC(=O)C(F)F)c12 | 2000 to 5000 nM
COC(=O)c1ccc2c(c1)[nH]c1nc(Cc3ccccc3)nc(NCCCN(C)CCCN)c12 | 1000 to 2000 nM
CN(CCCN1CCCCC1)c1ncnc2[nH]c3cc(-c4nnn(C)n4)ccc3c12 | 1000 to 2000 nM
COC(=O)c1ccc2c(c1)[nH]c1nc(Cc3cccc(OC)c3)nc(NCCCN3CCCCC3)c12 | 2000 to 5000 nM
COC(=O)c1ccc2c(c1)[nH]c1nc(Cc3ccccc3)nc(Nc3cccc(NC(C)=O)c3)c12 | 2000 to 5000 nM
CCNCCNc1nc(Cc2ccccc2)nc2[nH]c3cc(C(=O)OC)ccc3c12 | < 500 nM
Cn1nnc(-c2ccc3c(c2)[nH]c2nc(Cc4ccccc4)nc(NCCCNCCCNC(=O)CCCC[C@@H]4SC[C@@H]5NC(=O)N[C@@H]54)c23)n1 | 1000 to 2000 nM
CCOC(=O)c1ccc2c(c1)[nH]c1nc(Cc3ccccc3)nc(NCCCN3CCCCC3)c12 | 2000 to 5000 nM
COC(=O)c1ccc2c(c1)[nH]c1nc(Cc3ccccc3)nc(NCC3CCNC3)c12 (stereo not shown) | 500 to 1000 nM
COC(=O)c1ccc2c(c1)[nH]c1nc(Cc3ccccc3)nc(NCC(O)CN3CCCCC3)c12 (stereo not shown) | 2000 to 5000 nM
COC(=O)c1ccc2c(c1)[nH]c1nc(Cc3ccsc3)nc(NCCCN3CCCCC3)c12 | 1000 to 2000 nM

Structure (SMILES) | IC50
COC(=O)c1ccc2c(c1)[nH]c1nc(Cc3ccccn3)nc(NCCCN3CCCCC3)c12 | 2000 to 5000 nM
COC(=O)c1ccc2c(c1)[nH]c1nc(Cc3ccccc3)nc(NCCCN(C)CCCNc3ncnc4[nH]c5ccccc5c34)c12 | 2000 to 5000 nM
COC(=O)c1ccc2c3c(N(C)CCCN4CCCCC4)ncnc3n(C)c2c1 | 2000 to 5000 nM
COC(=O)c1ccc2c(c1)[nH]c1nc(Cc3ccccc3)nc(NCCCCCCCN)c12 | 1000 to 2000 nM
Cn1nnc(-c2ccc3c(c2)[nH]c2nc(Cc4ccccc4)nc(NCCCNCCCN)c23)n1 | 2000 to 5000 nM
COC(=O)c1ccc2c(c1)[nH]c1nc(C)nc(NCCCN(C)CCCN)c12 | 2000 to 5000 nM
COC(=O)c1ccc2c(c1)[nH]c1nc(Cc3ccncc3)nc(NCCCN3CCCCC3)c12 | 2000 to 5000 nM
c1ccc(-c2ccc3c(c2)[nH]c2ncnc(NCCCN4CCCCC4)c23)cc1 | 2000 to 5000 nM
C#CCNCCCN(C)CCCNc1nc(Cc2ccccc2)nc2[nH]c3cc(C(=O)OC)ccc3c12 | 1000 to 2000 nM
Cn1nnc(-c2ccc3c(c2)[nH]c2cc(Cc4ccccc4)nc(NCCCN4CCCCC4)c23)n1 | 1000 to 2000 nM
COC(=O)c1ccc2c(c1)[nH]c1nc(C)nc(NCCCN3CCCCC3)c12 | 2000 to 5000 nM
CN(C)CCNc1ncnc2[nH]c3cc(-c4nnn(C)n4)ccc3c12 | 500 to 1000 nM
COC(=O)c1ccc2c(c1)[nH]c1nc(Cc3ccccc3)nc(NCCNC3=NCCC3)c12 | 500 to 1000 nM
COC(=O)c1ccc2c(c1)[nH]c1ccnc(NCCCN3CCCCC3)c12 | 1000 to 2000 nM
Cc1nc(-c2ccc3c(c2)[nH]c2nc(Cc4ccccc4)nc(NCCCN4CCCCC4)c23)no1 | 1000 to 2000 nM
COC(=O)c1ccc2c(c1)[nH]c1nc(Nc3ccccc3)nc(NCCCN3CCCCC3)c12 | 1000 to 2000 nM
Cn1nnc(-c2ccc3c(c2)[nH]c2nc(Cc4ccccc4)nc(NCCCCCCCCCCN)c23)n1 | 1000 to 2000 nM
COC(=O)c1ccc2c(c1)[nH]c1nc(Cc3ccccc3)nc(NCCCN(C)CCCNC(=N)N)c12 | < 500 nM
Cn1nnc(-c2ccc3c(c2)[nH]c2nc(Cc4ccccc4)nc(NCCN)c23)n1 | 1000 to 2000 nM
CCCCCc1nc(NCCCN2CCCCC2)c2c(n1)[nH]c1cc(C(=O)OC)ccc12 | 500 to 1000 nM
Cc1nc(-c2ccc3c(c2)[nH]c2ncnc(NCCCN4CCCCC4)c23)no1 | 2000 to 5000 nM
COC(=O)c1ccc2[nH]c3nc(Cc4ccccc4)nc(NCCCN4CCCCC4)c3c2c1 [drawing 103] | 2000 to 5000 nM
CNS(=O)(=O)c1cccc(Nc2ncnc3[nH]c4cc(C(=O)OC)ccc4c23)c1 | < 500 nM
COC(=O)c1ccc2c(c1)[nH]c1cc(Cc3ccsc3)nc(NCCCN3CCCCC3)c12 | 2000 to 5000 nM

Structure (SMILES) | IC50
CC(=O)NCCNc1nc(Cc2ccccc2)nc2[nH]c3cc(-c4nnn(C)n4)ccc3c12 | 2000 to 5000 nM
COC(=O)c1ccc2c(c1)[nH]c1ncnc(NCCCN(C)CCCN)c12 | 2000 to 5000 nM
Cn1nnc(-c2ccc3c(c2)[nH]c2nc(Cc4ccccc4)nc(NCCCN4CCCC4)c23)n1 | < 500 nM
COC(=O)c1ccc2c(c1)[nH]c1nc(Cc3ccccc3)nc(NCCCN3CCCCC3)c12 | 1000 to 2000 nM
C#CCOC(CNc1nc(Cc2ccccc2)nc2[nH]c3cc(C(=O)OC)ccc3c12)CN1CCCCC1 (stereo not shown) | 2000 to 5000 nM
CCn1nnc(-c2ccc3c(c2)[nH]c2ncnc(NCCCN4CCCCC4)c23)n1 | 2000 to 5000 nM
COC(=O)c1ccc2c(c1)[nH]c1nc(Cc3cccc(F)c3)nc(NCCCN3CCCCC3)c12 | 2000 to 5000 nM
Cn1nnc(-c2ccc3c(c2)[nH]c2nc(Cc4ccccc4)nc(N[C@H]4CC[C@H](N(C)C)CC4)c23)n1 | 500 to 1000 nM
COC(=O)c1ccc2c(c1)[nH]c1ncnc(NCCN3CCCCC3)c12 | 2000 to 5000 nM
COC(=O)c1ccc2c(c1)[nH]c1ncnc(NCCCN3CCCCC3C)c12 (stereo not shown) | 2000 to 5000 nM
COC(=O)c1ccc2c(c1)[nH]c1ncnc(NCCc3c[nH]c4ccccc34)c12 | 2000 to 5000 nM
COC(=O)c1ccc2c(c1)[nH]c1nc(Cc3cccc(F)c3)nc(NCCCN(C)CCCN)c12 | 2000 to 5000 nM
COC(=O)c1ccc2c(c1)[nH]c1nc(Cc3ccccc3)nc(NCCCN(C)CC(O)COCc3ccccc3)c12 (stereo not shown) | 2000 to 5000 nM
COC(=O)c1ccc2c(c1)[nH]c1nc(Cc3ccccc3)nc(SCCCN3CCCCC3)c12 | 2000 to 5000 nM
COC(=O)c1ccc2c(c1)[nH]c1ncnc(NCC(C)(C)CN)c12 | 2000 to 5000 nM
COC(=O)c1ccc2c(c1)[nH]c1ncnc(N[C@H]3CC[C@@H](N)CC3)c12 | 2000 to 5000 nM
COC(=O)c1ccc2c(c1)[nH]c1nc(C(OCc3ccccc3)c3ccccc3)nc(NCCCN3CCCCC3)c12 (stereo not shown) | 1000 to 2000 nM
COC(=O)c1cnc2c(c1)[nH]c1nc(C(C)c3ccccc3)nc(NCCCN3CCCCC3)c12 (stereo not shown) | 2000 to 5000 nM
COC(=O)c1ccc2c(c1)[nH]c1nc(Cc3ccccc3C)nc(NCCCN3CCCCC3)c12 | 1000 to 2000 nM
COC(=O)c1cnc2c(c1)[nH]c1nc(Cc3ccc4ccccc4c3)nc(N3CCC(N4CCCC4)CC3)c12 | 500 to 1000 nM
COC(=O)c1ccc2c(c1)[nH]c1nc(Cc3ccccc3)nc(Cl)c12 | 1000 to 2000 nM
CNCCCNc1ncnc2[nH]c3cc(C(=O)OC)ccc3c12 | 2000 to 5000 nM
COC(=O)c1ccc2c(c1)[nH]c1cc(Cc3cccc(O)c3)nc(NCCCCN3CCCC3)c12 | 1000 to 2000 nM
CN1CCN(c2ccc(CNc3nc(Cc4ccccc4)nc4[nH]c5cc(-c6nnn(C)n6)ccc5c34)cc2)CC1 | 500 to 1000 nM

Structure (SMILES) | IC50
C#CCCC(=O)NCCCN(C)CCCNc1nc(Cc2ccccc2)nc2[nH]c3cc(C(=O)OC)ccc3c12 | 500 to 1000 nM
Cn1nnc(-c2ccc3c(c2)[nH]c2ncnc(NCCCN4CCCCC4)c23)n1 [drawing 53] | 1000 to 2000 nM
COC(=O)c1cnc2c(c1)[nH]c1nc(Cc3ccc4ccccc4c3)nc(NCCCN3CCCCC3)c12 | 1000 to 2000 nM
COC(=O)c1ccc2c(c1)[nH]c1nc(Cc3ccccc3)nc(NCCCCCN(C)C)c12 | 500 to 1000 nM
CN(C)CCCN(C)c1ncnc2[nH]c3cc(-c4nnn(C)n4)ccc3c12 | 1000 to 2000 nM
COC(=O)c1ccc2c(c1)[nH]c1ncnc(NCC#CCN3CCCCC3)c12 | 2000 to 5000 nM
COC(=O)c1ccc2c(c1)[nH]c1nc(Cc3cccnc3)nc(N3CCC(N4CCCC4)CC3)c12 | 2000 to 5000 nM
COC(=O)c1ccc2c(c1)[nH]c1nc(Cc3cccs3)nc(NCCCN3CCCCC3)c12 | 2000 to 5000 nM
COC(=O)c1ccc2c(c1)[nH]c1nc(Cc3ccccc3)nc(NCCCCCCN(C)C)c12 | 500 to 1000 nM
c1csc(-c2ccc3c(c2)[nH]c2ncnc(NCCCN4CCCCC4)c23)c1 | 2000 to 5000 nM
COC(=O)c1ccc2c(c1)[nH]c1nc(C(=O)c3ccccc3)nc(NCCCN3CCCCC3)c12 | 2000 to 5000 nM
COC(=O)c1ccc2c(c1)[nH]c1ncnc(NCCCN3CCCCC3)c12 [drawing 45] | 2000 to 5000 nM
Cn1nnc(-c2ccc3c(c2)[nH]c2ncnc(NCCCNC(=O)C(F)(F)F)c23)n1 | 2000 to 5000 nM
COC(=O)c1ccc2c(c1)[nH]c1nc(Cc3ccccc3)cc(NCCCN3CCCCC3)c12 | 2000 to 5000 nM
COC(=O)c1ccc2c3c(NCCCN4CCCCC4)ncnc3n(C)c2c1 | 1000 to 2000 nM
CNCCNc1nc(Cc2ccccc2)nc2[nH]c3cc(C(=O)OC)ccc3c12 | 500 to 1000 nM
Cn1nnc(-c2ccc3c(c2)[nH]c2ncnc(NCCCN4CCCC4)c23)n1 | 1000 to 2000 nM
Cn1nnc(-c2ccc3c(c2)[nH]c2nc(Cc4ccccc4)nc(NCCCN4CCCCC4)c23)n1 | 500 to 1000 nM
COC(=O)c1ccc2c(c1)[nH]c1nc(CC3CCCCC3)nc(NCCCN3CCCCC3)c12 | 2000 to 5000 nM
COC(=O)c1ccc2c(c1)[nH]c1ncnc(NCc3ccccc3CN(C)C)c12 | < 500 nM
COC(=O)c1ccc2c(c1)[nH]c1nc(C(C)c3ccccc3)nc(NCCCN3CCCCC3)c12 (stereo not shown) | 2000 to 5000 nM
COC(=O)c1ccc2c(c1)[nH]c1ncnc(N[C@H]3CC[C@H](N)CC3)c12 | 1000 to 2000 nM
